From US20250129054A1 (Terran Biosciences Inc., priority 2022, published 2025)
Structures can show the parent of a compound that is named as a salt.

Assay: Serial tail vein bleed PK study in SD rats: methylone measured in plasma after IV or oral methylone or oral methylone prodrugs
Format: in vivo, Sprague Dawley rats
Details: for Plasma Concentrations of metabolite methylone: 10 mg/kg, rat; for Tlast: analyte methylone in plasma, oral methylone THP 1-ethyl ester prodrug 10 mg/kg, male SD rats
Experimental: A pharmacokinetic (PK) study was performed in three male Sprague-Dawley (SD) rats following intravenous (IV) and oral (PO) administration of methylone at 1 mg/kg (IV) and 10 mg/kg (PO) respectively, or test compounds (prodrugs of methylone) at 10 mg/kg (PO). Parent compound (methylone) was measured in plasma.
Samples were sent for method optimization and measurement of parent compound (methylone) via unique calibration lines and following acceptance QC's. Dose formulation concentrations were also measured, and PK parameters were determined (Cmax (ng/mL), Tmax (hr), Cl (ml/min/kg), Vdss (L/kg), t½(hr), AUC0-t (ng/mL*hr), AUC0-inf (ng/mL*hr), MIRT (hr), Bioavailability ([…]) where warranted) using WinNon Lin software. Data (including bioanalytical results and assay performance) were reported in a tabulated format.
Formulation for PO Administration: For PO dosing, the prodrug was formulated in 10% DMSO/20% PEG400/70% water to a concentration of 2 mg free metabolite material/mL. This provided a dose of 10 mg free metabolite/kg when the prodrug was administered PO in 5 mL/kg dosing volumes.
Formulation for IV administration: For IV dosing, rac-methylone was formulated as solution in saline to a concentration of 0.5 mg free metabolite material/mL. This provided a dose of 1 mg free metabolite/kg when administered IV in 2 mL/kg dosing volumes.
The pharmacokinetic properties of the synthesized methylone prodrugs after oral administration in a rat model were assessed. The concentration of methylone was measured in each rat at various sampling timepoints after IV or oral administration of rac-methylone or the synthesized methylone prodrugs to rats.
Dose formulations were made at equivalent concentrations of active compound (methylone) adjusted for molecular weight of the compounds. The synthesized methylone prodrugs or analogs were dosed at 10 mg/kg oral (PO) nominal dose. Nominal doses were used in PK parameter determinations. The parent compound (methylone) was dosed at 1 mg/kg intravenous (IV) and 10 mg/kg (PO).

[1] = 0.500 h after oral dosing of the prodrug, individual animals
[2] = 0.500 h after oral dosing of the prodrug, mean
[3] = 1.00 h after oral dosing of the prodrug, individual animals
[4] = 1.00 h after oral dosing of the prodrug, mean
[5] = 2.00 h after oral dosing of the prodrug, individual animals
[6] = 2.00 h after oral dosing of the prodrug, mean
[7] = 4.00 h after oral dosing of the prodrug, individual animals
[8] = 4.00 h after oral dosing of the prodrug, mean
[9] = 7.00 h after oral dosing of the prodrug, individual animals
[10] = 7.00 h after oral dosing of the prodrug, mean
[11] = 24.0 h after oral dosing of the prodrug, individual animals
[12] = 24.0 h after oral dosing of the prodrug, mean

CC1C(c2ccc3c(c2)OCO3)=N[C@@H](CCCCN)C(=O)N1C (some centres unmarked) [Compound 4A, dihydrochloride]
Plasma Concentrations of metabolite methylone [1]: BLQ (Below Lower Limit of Quantification (0.5 ng/mL))
Plasma Concentrations of metabolite methylone [2]: BLQ (Below Lower Limit of Quantification (0.5 ng/mL))
Plasma Concentrations of metabolite methylone [3]: BLQ (Below Lower Limit of Quantification (0.5 ng/mL))
Plasma Concentrations of metabolite methylone [4]: BLQ (Below Lower Limit of Quantification (0.5 ng/mL))
Plasma Concentrations of metabolite methylone [5]: BLQ (Below Lower Limit of Quantification (0.5 ng/mL))
Plasma Concentrations of metabolite methylone [6]: BLQ (Below Lower Limit of Quantification (0.5 ng/mL))
Plasma Concentrations of metabolite methylone [7]: BLQ (Below Lower Limit of Quantification (0.5 ng/mL))
Plasma Concentrations of metabolite methylone [8]: BLQ (Below Lower Limit of Quantification (0.5 ng/mL))
Plasma Concentrations of metabolite methylone [9]: BLQ (Below Lower Limit of Quantification (0.5 ng/mL))
Plasma Concentrations of metabolite methylone [10]: BLQ (Below Lower Limit of Quantification (0.5 ng/mL))
Plasma Concentrations of metabolite methylone [11]: BLQ (Below Lower Limit of Quantification (0.5 ng/mL))
Plasma Concentrations of metabolite methylone [12]: BLQ (Below Lower Limit of Quantification (0.5 ng/mL))

CC(C(=O)c1ccc2c(c1)OCO2)N(C)C(=O)CCCC(=O)OC(C)(C)C (centres unmarked) [Compound 3C, tert-Butyl 4-{[2-(2H-1,3-benzodioxol-5-yl)-1-methyl-2-oxo-ethyl]-N-methylcarbamoyl}butyrate]
Plasma Concentrations of metabolite methylone [1]: BLQ (Below Lower Limit of Quantification (0.5 ng/mL))
Plasma Concentrations of metabolite methylone [2]: BLQ (Below Lower Limit of Quantification (0.5 ng/mL))
Plasma Concentrations of metabolite methylone [3]: BLQ (Below Lower Limit of Quantification (0.5 ng/mL))
Plasma Concentrations of metabolite methylone [4]: BLQ (Below Lower Limit of Quantification (0.5 ng/mL))
Plasma Concentrations of metabolite methylone [5]: BLQ (Below Lower Limit of Quantification (0.5 ng/mL))
Plasma Concentrations of metabolite methylone [6]: BLQ (Below Lower Limit of Quantification (0.5 ng/mL))
Plasma Concentrations of metabolite methylone [7]: BLQ (Below Lower Limit of Quantification (0.5 ng/mL))
Plasma Concentrations of metabolite methylone [8]: BLQ (Below Lower Limit of Quantification (0.5 ng/mL))
Plasma Concentrations of metabolite methylone [9]: BLQ (Below Lower Limit of Quantification (0.5 ng/mL))
Plasma Concentrations of metabolite methylone [10]: BLQ (Below Lower Limit of Quantification (0.5 ng/mL))
Plasma Concentrations of metabolite methylone [11]: BLQ (Below Lower Limit of Quantification (0.5 ng/mL))
Plasma Concentrations of metabolite methylone [12]: BLQ (Below Lower Limit of Quantification (0.5 ng/mL))

1-[[2-(1,3-Benzodioxol-5-yl)-1-methyl-2-oxo-ethyl]-methyl-carbamoyl]oxyethyl tetrahydropyran-4-carboxylate [Compound 6E]
Tlast (individual animal): 7.00 h
Tlast (mean): 7.00 h

CC(C(=O)c1ccc2c(c1)OCO2)N(C)C(=O)C(C)(C)C (centres unmarked) [PG, N-[2-(1,3-Benzodioxol-5-yl)-1-methyl-2-oxo-ethyl]-N-2,2-trimethyl-propanamide]
Plasma Concentrations of metabolite methylone [1]: BLQ (Below Lower Limit of Quantification (0.5 ng/mL))
Plasma Concentrations of metabolite methylone [2]: BLQ (Below Lower Limit of Quantification (0.5 ng/mL))
Plasma Concentrations of metabolite methylone [3]: BLQ (Below Lower Limit of Quantification (0.5 ng/mL))
Plasma Concentrations of metabolite methylone [4]: BLQ (Below Lower Limit of Quantification (0.5 ng/mL))
Plasma Concentrations of metabolite methylone [5]: BLQ (Below Lower Limit of Quantification (0.5 ng/mL))
Plasma Concentrations of metabolite methylone [6]: BLQ (Below Lower Limit of Quantification (0.5 ng/mL))
Plasma Concentrations of metabolite methylone [7]: BLQ (Below Lower Limit of Quantification (0.5 ng/mL))
Plasma Concentrations of metabolite methylone [8]: BLQ (Below Lower Limit of Quantification (0.5 ng/mL))
Plasma Concentrations of metabolite methylone [9]: BLQ (Below Lower Limit of Quantification (0.5 ng/mL))
Plasma Concentrations of metabolite methylone [10]: BLQ (Below Lower Limit of Quantification (0.5 ng/mL))
Plasma Concentrations of metabolite methylone [11]: BLQ (Below Lower Limit of Quantification (0.5 ng/mL))
Plasma Concentrations of metabolite methylone [12]: BLQ (Below Lower Limit of Quantification (0.5 ng/mL))

CC(C)OC(=O)N(C)C(C)C(=O)c1ccc2c(c1)OCO2 (centres unmarked) [Compound 1B, iso-Propyl N-[2-(1,3-benzodioxol-5-yl)-1-methyl-2-oxo-ethyl]-N-methyl-carbamate]
Plasma Concentrations of metabolite methylone [1]: BLQ (Below Lower Limit of Quantification (0.5 ng/mL))
Plasma Concentrations of metabolite methylone [2]: BLQ (Below Lower Limit of Quantification (0.5 ng/mL))
Plasma Concentrations of metabolite methylone [3]: BLQ (Below Lower Limit of Quantification (0.5 ng/mL))
Plasma Concentrations of metabolite methylone [4]: BLQ (Below Lower Limit of Quantification (0.5 ng/mL))
Plasma Concentrations of metabolite methylone [5]: BLQ (Below Lower Limit of Quantification (0.5 ng/mL))
Plasma Concentrations of metabolite methylone [6]: BLQ (Below Lower Limit of Quantification (0.5 ng/mL))
Plasma Concentrations of metabolite methylone [7]: BLQ (Below Lower Limit of Quantification (0.5 ng/mL))
Plasma Concentrations of metabolite methylone [8]: BLQ (Below Lower Limit of Quantification (0.5 ng/mL))
Plasma Concentrations of metabolite methylone [9]: BLQ (Below Lower Limit of Quantification (0.5 ng/mL))
Plasma Concentrations of metabolite methylone [10]: BLQ (Below Lower Limit of Quantification (0.5 ng/mL))
Plasma Concentrations of metabolite methylone [11]: BLQ (Below Lower Limit of Quantification (0.5 ng/mL))
Plasma Concentrations of metabolite methylone [12]: BLQ (Below Lower Limit of Quantification (0.5 ng/mL))

CC(C(=O)c1ccc2c(c1)OCO2)N(C)C(=O)CN(C)C (centres unmarked) [Compound 3B, N-[2-(1,3-Benzodioxol-5-yl)-1-methyl-2-oxo-ethyl]-2-(dimethylamino)-N-methyl-acetamide]
Plasma Concentrations of metabolite methylone [1]: BLQ (Below Lower Limit of Quantification (0.5 ng/mL))
Plasma Concentrations of metabolite methylone [2]: BLQ (Below Lower Limit of Quantification (0.5 ng/mL))
Plasma Concentrations of metabolite methylone [3]: BLQ (Below Lower Limit of Quantification (0.5 ng/mL))
Plasma Concentrations of metabolite methylone [4]: BLQ (Below Lower Limit of Quantification (0.5 ng/mL))
Plasma Concentrations of metabolite methylone [5]: BLQ (Below Lower Limit of Quantification (0.5 ng/mL))
Plasma Concentrations of metabolite methylone [6]: BLQ (Below Lower Limit of Quantification (0.5 ng/mL))
Plasma Concentrations of metabolite methylone [7]: BLQ (Below Lower Limit of Quantification (0.5 ng/mL))
Plasma Concentrations of metabolite methylone [8]: BLQ (Below Lower Limit of Quantification (0.5 ng/mL))
Plasma Concentrations of metabolite methylone [9]: BLQ (Below Lower Limit of Quantification (0.5 ng/mL))
Plasma Concentrations of metabolite methylone [10]: BLQ (Below Lower Limit of Quantification (0.5 ng/mL))
Plasma Concentrations of metabolite methylone [11]: BLQ (Below Lower Limit of Quantification (0.5 ng/mL))
Plasma Concentrations of metabolite methylone [12]: BLQ (Below Lower Limit of Quantification (0.5 ng/mL))

COCCOC(=O)N(C)C(C)C(=O)c1ccc2c(c1)OCO2 (centres unmarked) [PE, 2-Methoxyethyl N-[2-(1,3-benzodioxol-5-yl)-1-methyl-2-oxo-ethyl]-N-methyl-carbamate]
Plasma Concentrations of metabolite methylone [1]: BLQ (Below Lower Limit of Quantification (0.5 ng/mL))
Plasma Concentrations of metabolite methylone [2]: BLQ (Below Lower Limit of Quantification (0.5 ng/mL))
Plasma Concentrations of metabolite methylone [3]: BLQ (Below Lower Limit of Quantification (0.5 ng/mL))
Plasma Concentrations of metabolite methylone [4]: BLQ (Below Lower Limit of Quantification (0.5 ng/mL))
Plasma Concentrations of metabolite methylone [5]: BLQ (Below Lower Limit of Quantification (0.5 ng/mL))
Plasma Concentrations of metabolite methylone [6]: BLQ (Below Lower Limit of Quantification (0.5 ng/mL))
Plasma Concentrations of metabolite methylone [7]: BLQ (Below Lower Limit of Quantification (0.5 ng/mL))
Plasma Concentrations of metabolite methylone [8]: BLQ (Below Lower Limit of Quantification (0.5 ng/mL))
Plasma Concentrations of metabolite methylone [9]: BLQ (Below Lower Limit of Quantification (0.5 ng/mL))
Plasma Concentrations of metabolite methylone [10]: BLQ (Below Lower Limit of Quantification (0.5 ng/mL))
Plasma Concentrations of metabolite methylone [11]: BLQ (Below Lower Limit of Quantification (0.5 ng/mL))
Plasma Concentrations of metabolite methylone [12]: BLQ (Below Lower Limit of Quantification (0.5 ng/mL))
